According to the supplement of paper PMC10307832:

Experiments:
Assay in all cases: relative viability (nuclei count vs DMSO), 5 days (fraction); higher = more cells survive
[1] = compound: COc1cc2ncn(-c3cc(OCc4ccccc4C(F)(F)F)c(C(N)=O)s3)c2cc1OC + CS(=O)(=O)N1CCN(Cc2cc3nc(-c4cccc5[nH]ncc45)nc(N4CCOCC4)c3s2)CC1 [Pictilisib] (partner 1 µM)
Summary of the method: (§1)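 Values are medians from duplicate plates. Each reflects relative viability, defined as the nuclei count of treated wells over that of vehicle wells. Lung cancer cell lines in 1536-well plates were pin-tool dosed one day after seeding with one drug alone or with a fixed anchor-drug dose plus five library-drug doses (not always all listed) in √10 steps, then fixed, stained and imaged at 4× after 5 days.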

[2] = compound: COc1cc2ncn(-c3cc(OCc4ccccc4C(F)(F)F)c(C(N)=O)s3)c2cc1OC + C[C@@H](Oc1cc(-c2cnn(C3CCNCC3)c2)cnc1N)c1c(Cl)ccc(F)c1Cl [Crizotinib] (partner 1 µM)
Summary of the method: as §1

[3] = compound: COc1cc2ncn(-c3cc(OCc4ccccc4C(F)(F)F)c(C(N)=O)s3)c2cc1OC + Cc1nc(NC(=O)N2CCC[C@H]2C(N)=O)sc1-c1ccnc(C(C)(C)C(F)(F)F)c1 [Alpelisib] (partner 2 µM)
Summary of the method: as §1

[4] = compound: COc1cc2ncn(-c3cc(OCc4ccccc4C(F)(F)F)c(C(N)=O)s3)c2cc1OC + CS(=O)(=O)CCNCc1ccc(-c2ccc3ncnc(Nc4ccc(OCc5cccc(F)c5)c(Cl)c4)c3c2)o1 [Lapatinib] (partner 2 µM)
Summary of the method: as §1

[5] = compound: COc1cc2ncn(-c3cc(OCc4ccccc4C(F)(F)F)c(C(N)=O)s3)c2cc1OC + CC(C)C[C@H](NC(=O)[C@H](Cc1ccccc1)NC(=O)c1cnccn1)B(O)O [Bortezomib] (partner 0.002 µM)
Summary of the method: as §1

[6] = compound: COc1cc2ncn(-c3cc(OCc4ccccc4C(F)(F)F)c(C(N)=O)s3)c2cc1OC + O=C(c1cc(Cc2n[nH]c(=O)c3ccccc23)ccc1F)N1CCN(C(=O)C2CC2)CC1 [Olaparib] (partner 8 µM)
Summary of the method: as §1

[7] = compound: COc1cc2ncn(-c3cc(OCc4ccccc4C(F)(F)F)c(C(N)=O)s3)c2cc1OC + CC1(C)CCC(c2ccc(Cl)cc2)=C(CN2CCN(c3ccc(C(=O)NS(=O)(=O)c4ccc(N[C@H](CCN5CCOCC5)CSc5ccccc5)c(S(=O)(=O)C(F)(F)F)c4)cc3)CC2)C1 [Navitoclax] (partner 0.5 µM)
Summary of the method: as §1

[8] = compound: COc1cc2ncn(-c3cc(OCc4ccccc4C(F)(F)F)c(C(N)=O)s3)c2cc1OC + COc1cc2c(Oc3ccc(NC(=O)C4(C(=O)Nc5ccc(F)cc5)CC4)cc3F)ccnc2cc1OCCCN1CCOCC1 [Foretinib] (partner 0.25 µM)
Summary of the method: as §1

[9] = compound: COc1cc2ncn(-c3cc(OCc4ccccc4C(F)(F)F)c(C(N)=O)s3)c2cc1OC + C[C@]1(O)C[C@@H](c2nc(-c3ccc4ccc(-c5ccccc5)nc4c3)c3c(N)nccn32)C1 [Linsitinib] (partner 1 µM)
Summary of the method: as §1

[10] = compound: COc1cc2ncn(-c3cc(OCc4ccccc4C(F)(F)F)c(C(N)=O)s3)c2cc1OC
Summary of the method: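 After an overnight hold at 37 °C, lung cancer cell lines in 1536-well plates were pinned with five library-drug doses (not always all listed), each √10 from the next, on vehicle-anchored plates. The cells stayed 5 days without fresh medium, then a one-step fix, permeabilisation and Hoechst stain preceded 4× imaging and MetaXpress nuclear counts. A plate passed only with control CV under 25% and at least one doubling. Viability is the median, over plates, of treated-well nuclei relative to vehicle-well nuclei.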

[11] = compound: COc1cc2ncn(-c3cc(OCc4ccccc4C(F)(F)F)c(C(N)=O)s3)c2cc1OC + CCNC(=O)c1noc(-c2cc(C(C)C)c(O)cc2O)c1-c1ccc(CN2CCOCC2)cc1 [Luminespib] (partner 0.01 µM)
Summary of the method: as §1

[12] = compound: COc1cc2ncn(-c3cc(OCc4ccccc4C(F)(F)F)c(C(N)=O)s3)c2cc1OC + Cc1nc(Nc2ncc(C(=O)Nc3c(C)cccc3Cl)s2)cc(N2CCN(CCO)CC2)n1 [Dasatinib] (partner 0.075 µM)
Summary of the method: as §1

[13] = compound: COc1cc2ncn(-c3cc(OCc4ccccc4C(F)(F)F)c(C(N)=O)s3)c2cc1OC + N=C(N)NC(=N)NCCc1ccccc1 [Phenformin] (partner 250 µM)
Summary of the method: as §1

[14] = compound: COc1cc2ncn(-c3cc(OCc4ccccc4C(F)(F)F)c(C(N)=O)s3)c2cc1OC + COc1cccc2cc(-c3nc([C@H]4CC[C@H](C(=O)O)CC4)n4ncnc(N)c34)[nH]c12 [OSI-027] (partner 0.5 µM)
Summary of the method: as §1

[15] = compound: COc1cc2ncn(-c3cc(OCc4ccccc4C(F)(F)F)c(C(N)=O)s3)c2cc1OC + Cc1cc(Nc2cc(N3CCN(C)CC3)nc(Sc3ccc(NC(=O)C4CC4)cc3)n2)n[nH]1 [Tozasertib] (partner 0.1 µM)
Summary of the method: as §1

NCI-H1299
relative viability ([1]; first compound 0.05 µM): 0.77 | relative viability ([1]; first compound 0.1581 µM): 0.699 | relative viability ([1]; first compound 0.5 µM): 0.18 | relative viability ([1]; first compound 1.581 µM): 0.142 | relative viability ([1]; first compound 5 µM): 0.132 | relative viability ([2]; first compound 0.05 µM): 0.982 | relative viability ([2]; first compound 0.1581 µM): 0.939 | relative viability ([2]; first compound 0.5 µM): 0.572 | relative viability ([2]; first compound 1.581 µM): 0.305 | relative viability ([2]; first compound 5 µM): 0.329 | relative viability ([3]; first compound 0.05 µM): 1.04 | relative viability ([3]; first compound 0.1581 µM): 0.979 | relative viability ([3]; first compound 0.5 µM): 0.788 | relative viability ([3]; first compound 1.581 µM): 0.326 | relative viability ([3]; first compound 5 µM): 0.654 | relative viability ([4]; first compound 0.05 µM): 0.984 | relative viability ([4]; first compound 0.1581 µM): 0.92 | relative viability ([4]; first compound 0.5 µM): 0.599 | relative viability ([4]; first compound 1.581 µM): 0.314 | relative viability ([4]; first compound 5 µM): 0.312 | relative viability ([5]; first compound 0.05 µM): 0.985 | relative viability ([5]; first compound 0.1581 µM): 1.01 | relative viability ([5]; first compound 0.5 µM): 0.856 | relative viability ([5]; first compound 1.581 µM): 0.263 | relative viability ([5]; first compound 5 µM): 0.675 | relative viability ([6]; first compound 0.05 µM): 0.962 | relative viability ([6]; first compound 0.1581 µM): 0.921 | relative viability ([6]; first compound 0.5 µM): 0.431 | relative viability ([6]; first compound 1.581 µM): 0.223 | relative viability ([6]; first compound 5 µM): 0.19 | relative viability ([7]; first compound 0.05 µM): 1.06 | relative viability ([7]; first compound 0.1581 µM): 1.09 | relative viability ([7]; first compound 0.5 µM): 0.833 | relative viability ([7]; first compound 1.581 µM): 0.232 | relative viability ([7]; first compound 5 µM): 0.238 | relative viability ([8]; first compound 0.05 µM): 1.1 | relative viability ([8]; first compound 0.1581 µM): 1.07 | relative viability ([8]; first compound 0.5 µM): 0.664 | relative viability ([8]; first compound 1.581 µM): 0.255 | relative viability ([8]; first compound 5 µM): 0.257 | relative viability ([9]; first compound 0.05 µM): 0.984 | relative viability ([9]; first compound 0.1581 µM): 1.12 | relative viability ([9]; first compound 0.5 µM): 0.636 | relative viability ([9]; first compound 1.581 µM): 0.245 | relative viability ([9]; first compound 5 µM): 0.253 | relative viability ([10]; 0.05 µM): 1.01 | relative viability ([10]; 0.1581 µM): 1.02 | relative viability ([10]; 0.5 µM): 0.718 | relative viability ([10]; 1.581 µM): 0.269 | relative viability ([10]; 5 µM): 0.318

NCI-H1623
relative viability ([11]; first compound 0.05 µM): 0.49 | relative viability ([11]; first compound 0.1581 µM): 0.485 | relative viability ([11]; first compound 0.5 µM): 0.435 | relative viability ([11]; first compound 5 µM): 0.37 | relative viability ([12]; first compound 0.05 µM): 0.525 | relative viability ([12]; first compound 0.1581 µM): 0.447 | relative viability ([12]; first compound 0.5 µM): 0.508 | relative viability ([12]; first compound 5 µM): 0.557 | relative viability ([13]; first compound 0.05 µM): 0.588 | relative viability ([13]; first compound 0.1581 µM): 0.395 | relative viability ([13]; first compound 0.5 µM): 0.463 | relative viability ([13]; first compound 5 µM): 0.576 | relative viability ([14]; first compound 0.05 µM): 0.478 | relative viability ([14]; first compound 0.1581 µM): 0.429 | relative viability ([14]; first compound 0.5 µM): 0.376 | relative viability ([14]; first compound 1.581 µM): 0.281 | relative viability ([14]; first compound 5 µM): 0.349 | relative viability ([8]; first compound 0.05 µM): 0.824 | relative viability ([8]; first compound 0.1581 µM): 0.723 | relative viability ([8]; first compound 0.5 µM): 0.62 | relative viability ([8]; first compound 1.581 µM): 0.426 | relative viability ([8]; first compound 5 µM): 0.694 | relative viability ([15]; first compound 0.05 µM): 0.438 | relative viability ([15]; first compound 0.1581 µM): 0.382 | relative viability ([15]; first compound 0.5 µM): 0.386 | relative viability ([15]; first compound 5 µM): 0.399 | relative viability ([10]; 0.05 µM): 0.962 | relative viability ([10]; 0.1581 µM): 0.975 | relative viability ([10]; 0.5 µM): 0.694 | relative viability ([10]; 1.581 µM): 0.439 | relative viability ([10]; 5 µM): 0.758
